Assay results published in patent US20200288711A1, “Pyrimidin-4-Carbamate or Urea Derivatives As Herbicides” (Syngenta Participations AG, priority 2017, published 2020).

Columns and labels:
Assay type in all cases: in vivo
[1] = system: Echinochloa crus-galli (ECHCG); assay: B1 pre-emergence herbicidal activity; design: key to Pre-emergence herbicidal activity, ECHCG: 5=total damage to plant; 0=no damage to plant; details: Test 1b, rate 1000 g/ha, evaluated after 13 days, score 0-5 (5=total damage, 0=no damage)
Experimental: (§1) Seeds of a variety of test species were sown in standard soil in pots: Triticum aestivium (TRZAW), Avena fatua (AVEFA), Alopecurus myosuroides (ALOMY), Echinochloa crus-galli (ECHCG), Lolium perenne (LOLPE), Zea mays (ZEAMX), Abutilon theophrasti (ABUTH), Amaranthus retroflexus (AMARE) and Setaria faberi (SETFA). After cultivation for one day (pre-emergence) under controlled conditions in a glasshouse (at 24/16° C., day/night; 14 hours light; 65% humidity), the plants were sprayed with an aqueous spray solution derived from the formulation of the technical active ingredient in acetone/water (50:50) solution containing 0.5% Tween 20 (polyoxyethelyene sorbitan monolaurate, CAS RN 9005-64-5). The test plants were then grown in a glasshouse under controlled conditions (at 24/16° C., day/night; 14 hours light; 65% humidity) and watered twice daily. After 13 days, the test was evaluated (5=total damage to plant; 0=no damage to plant).

Lolium perenne (LOLPE) [2] = assay: B2 post-emergence herbicidal activity; design: key: 5=total damage to plant; 0=no damage to plant; details: Test 2b, rate 1000 g/ha, evaluated after 13 days, score 0-5 (5=total damage, 0=no damage)
Experimental: (§2) Seeds of a variety of test species were sown in standard soil in pots: Triticum aestivium (TRZAW), Avena fatua (AVEFA), Alopecurus myosuroides (ALOMY), Echinochloa crus-galli (ECHCG), Lolium perenne (LOLPE), Zea mays (ZEAMX), Abutilon theophrasti (ABUTH), Amaranthus retroflexus (AMARE) and Setaria faberi (SETFA). After 8 days cultivation (post-emergence) under controlled conditions in a glasshouse (at 24/16° C., day/night; 14 hours light; 65% humidity), the plants were sprayed with an aqueous spray solution derived from the formulation of the technical active ingredient in acetone/water (50:50) solution containing 0.5% Tween 20 (polyoxyethelyene sorbitan monolaurate, CAS RN 9005-64-5). The test plants were then grown in a glasshouse under controlled conditions (at 24/16° C., day/night; 14 hours light; 65% humidity) and watered twice daily. After 13 days, the test was evaluated (5=total damage to plant; 0=no damage to plant).

[3] = system: Alopecurus myosuroides (ALOMY); assay: B2 post-emergence herbicidal activity; design: key: 5=total damage to plant; 0=no damage to plant; details: Test 2b, rate 1000 g/ha, evaluated after 13 days, score 0-5 (5=total damage, 0=no damage)
Experimental: as §2

[4] = system: Echinochloa crus-galli (ECHCG); assay: B2 post-emergence herbicidal activity; design: key: 5=total damage to plant; 0=no damage to plant; details: Test 2b, rate 1000 g/ha, evaluated after 13 days, score 0-5 (5=total damage, 0=no damage)
Experimental: as §2

[5] = system: Triticum aestivium (TRZAW); assay: B2 post-emergence herbicidal activity; design: key: 5=total damage to plant; 0=no damage to plant; details: Test 2b, rate 1000 g/ha, evaluated after 13 days, score 0-5 (5=total damage, 0=no damage)
Experimental: as §2

Setaria faberi (SETFA) [6] = assay: B2 post-emergence herbicidal activity; design: key: 5=total damage to plant; 0=no damage to plant; details: Test 2b, rate 1000 g/ha, evaluated after 13 days, score 0-5 (5=total damage, 0=no damage)
Experimental: as §2

Avena fatua (AVEFA) [7] = assay: B2 post-emergence herbicidal activity; design: key: 5=total damage to plant; 0=no damage to plant; details: Test 2b, rate 1000 g/ha, evaluated after 13 days, score 0-5 (5=total damage, 0=no damage)
Experimental: as §2

Setaria faberi (SETFA) [8] = assay: B1 pre-emergence herbicidal activity; design: key to Pre-emergence herbicidal activity, SETFA: 5=total damage to plant; 0=no damage to plant; details: Test 1b, rate 1000 g/ha, evaluated after 13 days, score 0-5 (5=total damage, 0=no damage)
Experimental: as §1

Lolium perenne (LOLPE) [9] = assay: B1 pre-emergence herbicidal activity; design: key: 5=total damage to plant; 0=no damage to plant; details: Test 1b, rate 1000 g/ha, evaluated after 13 days, score 0-5 (5=total damage, 0=no damage)
Experimental: as §1

[10] = system: Alopecurus myosuroides (ALOMY); assay: B1 pre-emergence herbicidal activity; design: key: 5=total damage to plant; 0=no damage to plant; details: Test 1b, rate 1000 g/ha, evaluated after 13 days, score 0-5 (5=total damage, 0=no damage)
Experimental: as §1

[11] = system: Triticum aestivium (TRZAW); assay: B1 pre-emergence herbicidal activity; design: key: 5=total damage to plant; 0=no damage to plant; details: Test 1b, rate 1000 g/ha, evaluated after 13 days, score 0-5 (5=total damage, 0=no damage)
Experimental: as §1

Avena fatua (AVEFA) [12] = assay: B1 pre-emergence herbicidal activity; design: key: 5=total damage to plant; 0=no damage to plant; details: Test 1b, rate 1000 g/ha, evaluated after 13 days, score 0-5 (5=total damage, 0=no damage)
Experimental: as §1

SMILES | Pre-emergence herbicidal activity, ECHCG [1] | Control of weed species after post-emergence application, LOLPE (Lolium perenne (LOLPE) [2]) | Control of weed species after post-emergence application, ALOMY [3] | Control of weed species after post-emergence application, ECHCG [4] | Control of weed species after post-emergence application, TRAZW [5] | Control of weed species after post-emergence application, SETFA (Setaria faberi (SETFA) [6]) | Control of weed species after post-emergence application, AVEFA (Avena fatua (AVEFA) [7]) | Pre-emergence herbicidal activity, SETFA (Setaria faberi (SETFA) [8]) | Pre-emergence herbicidal activity, LOLPE (Lolium perenne (LOLPE) [9]) | Pre-emergence herbicidal activity, ALOMY [10] | Pre-emergence herbicidal activity, TRAZW [11] | Pre-emergence herbicidal activity, AVEFA (Avena fatua (AVEFA) [12])
Cc1nc(-c2cncnc2)ncc1N(C)C(=O)OC(C)(C)C [Compound E3] | 4 | 3 | 2 | 4 | 1 | 5 | 4 | 4 | 1 | 1 | 0 | 4
CC(C)(C)OC(=O)Nc1cnc(-c2cncc(F)c2)nc1C(F)(F)F [Compound E4, tert-butyl N-[2-(5-fluoro-3-pyridyl)-4-(trifluoromethyl)pyrimidin-5-yl]carbamate] | 4 | 3 | 1 | 4 | 1 | 5 | 4 | 4 | 1 | 0 | 0 | 4
CN(C(=O)OC(C)(C)C)c1cnc(-c2cncc(F)c2)nc1C(F)(F)F [Compound E5] | 3 | 2 | 0 | 4 | 0 | 5 | 4 | 5 | 1 | 0 | 0 | 3
C=CCN(C(=O)OC(C)(C)C)c1cnc(-c2cncnc2)nc1C [Compound E6] | 3 | 1 | 1 | 3 | 1 | 5 | 2 | 5 | 1 | 0 | 0 | 1
Cc1nc(-c2cncnc2)ncc1NC(=O)OC(C)(C)C [Compound E7, tert-butyl N-(4-methyl-2-pyrimidin-5-yl-pyrimidin-5-yl)carbamate] | 5 | 2 | 0 | 4 | 0 | 4 | 3 | 4 | 1 | 0 | 0 | 2
O=C(Nc1cnc(-c2cncc(F)c2)nc1C(F)(F)F)N1CCOCC1 [Compound E8, N-[2-(5-fluoro-3-pyridyl)-4-(trifluoromethyl)pyrimidin-5-yl]morpholine-4-carboxamide] | 3 | 3 | 1 | 4 | 1 | 5 | 3 | 4 | 1 | 0 | 0 | 2
CN1CCN(c2cnc(-c3cncc(F)c3)nc2C(F)(F)F)C1=O [Compound E9, 1-[2-(5-fluoro-3-pyridyl)-4-(trifluoromethyl)pyrimidin-5-yl]-3-methyl-imidazolidin-2-one] | 1 | 1 | 0 | 4 | 1 | 3 | 2 | 2 | 1 | 0 | 0 | 1
CCCOC(=O)Nc1cnc(-c2cncc(F)c2)nc1C(F)(F)F [Compound E10] | 4 | 1 | 0 | 4 | 1 | 5 | 3 | – | 1 | 0 | 0 | 2
CC(C)(C)OC(=O)Nc1cnc(-c2cncnc2)nc1C(F)(F)F [Compound E11] | 3 | 2 | 0 | 4 | 1 | 4 | 3 | 4 | 1 | 1 | 0 | 2
CC(C)(C)OC(=O)Nc1cnc(-c2cncc(C#N)c2)nc1C(F)(F)F [Compound E12, tert-butyl N-[2-(5-cyano-3-pyridyl)-4-(trifluoromethyl)pyrimidin-5-yl]carbamate] | 3 | 1 | 0 | 2 | 0 | 5 | 2 | 4 | 0 | 0 | 0 | 0
CN(C)C(=O)Nc1cnc(-c2cncc(F)c2)nc1C(F)(F)F [Compound E13] | 3 | 3 | 1 | 4 | 2 | 5 | 3 | 4 | 1 | 0 | 0 | 1
